One test has as its target T1, human TRPM2 channels (Homo sapiens, UniProt O94759).
T1 construct: expressed in transfected cells
The test can be described thus: whole cell patch clamp, inhibition of TRPM2 channel current. Type of test: cell-based. The settings on record: HEK293 cells stably expressing human TRPM2, 500 μM ADPR. The protocol:
The fused heterocyclic compound of the present invention has an inhibitory effect on the TRPM2 channel, and its pharmacological activity is measured using whole cell patch clamp technology, the corresponding steps are as follows: Incubating HEK293 cells stably expressing human TRPM2 channels in DMEM/F-12 medium containing 10% bovine serum, 50 units/mL of penicillin and […] of streptomycin under the condition of 5% CO2 and 37° C. The cells before testing are stored in the extracellular fluid (147 mM NaCl, 2 mM KCl, 1 mM MgCl2, 2 mM CaCl2, 10 mM HEPES, 13 mM glucose, pH 7.4). The electrode is filled with the electrode internal solution (147 mM NaCl, 0.05 mM EGTA, 1 mM MgCl2, 10 mM HEPES, 0.5 mM ADPR, pH=7.3), and the resistance is maintained at 3-5 M Ω. Administering ADPR into cells through electrodes, and detecting the ADPR concentration used to activate TRPM2 as 500 μM, when detecting a stable current, perfusing the corresponding concentration of fused heterocyclic compound II-1 into the extracellular fluid for at least 60 seconds. record the change in current magnitude using voltage ramp mode, changing the voltage from −100 mV to+100 mV within 500 ms, with a normal clamp voltage of 0 mV and a TRPM every 5 seconds; finally, replacing the extracellular fluid with a solution with pH=5.0 to block the TRPM2 current, the electrophysiological current test results obtained are shown in Table 1, and the electrophysiological current graph obtained is shown in FIG. 1. Similarly, administering corresponding concentrations of other fused heterocyclic compounds (II-2˜II-54, III-1˜III-11) into the extracellular fluid, taking electrophysiological tests using the same method, the results are shown in Table 1. The electrophysiological representative current graphs of some fused heterocyclic compounds (II-9, II-19, and II-36) inhibiting TRPM2 channel current are shown in FIG. 1.

In test [1] the test system is dopaminergic neurons differentiated from iPSC derived from disseminated PD patients. The test can be described thus: mitochondrial fusion morphology (Mitotracker, Girk2 labeling) of iPSC differentiated dopaminergic neurons. The class given is cell-based, human. The settings on record: II-23 0.6 μM, ACA 0.5 μM; Mitotracker staining, Girk2-positive neurons. The protocol: Using normal and disseminated PD patient-derived induced pluripotent stem cells (iPSC), performing drug interventions using the TRPM2 inhibitors ACA and II-23 after they were induced and differentiated into mature dopaminergic neurons, the drug treating method is as follows: • a. Calculating the materials for the experiment, and starting preparing when the dopaminergic neurons are differentiated to the 8th day. The petri dishes should be treated with 33 μg/mL PDL overnight and washed with sterilized water. After drying, 2 μg/mL of laminin was added and incubated overnight. Both PDL and laminin can be recycled for reuse. • b. […] Fluorescence confocal imaging was performed using a confocal dish inoculated with 2 mL/dish, and cell viability assays were performed using a 96-well plate inoculated with 100 μL/well. […]
Positive dopamine neurons were labeled with a dopaminergic neuron marker molecule Girk2 antibody susceptible for SNc, and cellular mitochondria were labeled with the mitochondrial dye mitotracker as in FIG. 15. […] Finally, performing the fluorescence imaging: removing the secondary antibody, and washing three times with 1×PBS, adding 50% Glycerol for fluorescence protection, and then imaging with a Zeiss LSM880 laser confocal microscope, as shown in FIG. 15.

T1 sequence (O94759 whole entry): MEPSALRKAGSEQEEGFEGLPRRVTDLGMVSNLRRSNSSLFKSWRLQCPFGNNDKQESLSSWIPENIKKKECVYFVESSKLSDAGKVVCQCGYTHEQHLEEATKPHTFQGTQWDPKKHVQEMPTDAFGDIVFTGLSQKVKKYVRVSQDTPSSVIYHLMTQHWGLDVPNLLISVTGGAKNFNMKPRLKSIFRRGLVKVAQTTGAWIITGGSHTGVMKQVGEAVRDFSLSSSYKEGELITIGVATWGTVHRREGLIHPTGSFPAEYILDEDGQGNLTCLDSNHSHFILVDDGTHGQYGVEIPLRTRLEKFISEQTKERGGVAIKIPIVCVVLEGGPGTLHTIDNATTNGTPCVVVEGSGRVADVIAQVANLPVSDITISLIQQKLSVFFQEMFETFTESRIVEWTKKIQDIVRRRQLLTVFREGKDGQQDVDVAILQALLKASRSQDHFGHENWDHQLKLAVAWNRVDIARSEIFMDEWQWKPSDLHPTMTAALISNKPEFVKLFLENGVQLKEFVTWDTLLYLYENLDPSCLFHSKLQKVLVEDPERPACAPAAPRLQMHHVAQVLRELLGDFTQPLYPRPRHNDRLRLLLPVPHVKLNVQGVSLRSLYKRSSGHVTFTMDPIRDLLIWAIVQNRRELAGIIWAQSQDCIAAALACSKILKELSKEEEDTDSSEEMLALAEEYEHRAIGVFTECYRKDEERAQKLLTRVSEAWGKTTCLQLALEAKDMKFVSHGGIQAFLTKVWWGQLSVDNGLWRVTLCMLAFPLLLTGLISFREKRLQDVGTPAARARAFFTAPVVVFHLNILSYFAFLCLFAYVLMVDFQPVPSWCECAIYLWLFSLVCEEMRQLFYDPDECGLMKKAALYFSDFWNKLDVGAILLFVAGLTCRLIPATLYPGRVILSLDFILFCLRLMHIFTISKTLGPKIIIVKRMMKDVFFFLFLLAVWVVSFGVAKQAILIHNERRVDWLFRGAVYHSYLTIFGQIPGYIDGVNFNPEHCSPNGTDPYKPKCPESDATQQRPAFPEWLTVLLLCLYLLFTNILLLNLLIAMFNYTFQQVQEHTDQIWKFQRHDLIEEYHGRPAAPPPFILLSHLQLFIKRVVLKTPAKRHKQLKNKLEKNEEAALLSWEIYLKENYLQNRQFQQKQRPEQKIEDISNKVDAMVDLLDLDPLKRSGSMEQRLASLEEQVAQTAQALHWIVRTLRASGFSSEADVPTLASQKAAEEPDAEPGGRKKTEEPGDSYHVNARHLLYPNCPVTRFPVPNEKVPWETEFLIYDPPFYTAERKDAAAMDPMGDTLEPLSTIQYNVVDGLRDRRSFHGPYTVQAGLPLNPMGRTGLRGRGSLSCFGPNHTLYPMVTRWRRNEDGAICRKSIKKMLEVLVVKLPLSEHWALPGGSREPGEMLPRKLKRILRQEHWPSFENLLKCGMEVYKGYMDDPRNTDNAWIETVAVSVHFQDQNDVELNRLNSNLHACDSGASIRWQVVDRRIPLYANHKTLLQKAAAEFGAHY

As a reminder, the IC50 is the concentration that inhibits the measured activity by half. For `CCN(CC)C(=O)c1cc(C(=O)c2ccccc2)n2cccc2c1` [II-23, 5-Benzoyl-N, N-diethylindolizine-7-formamide], the IC50 on human TRPM2 channels lay within 1 to 10 µM. The “excessive mitochondrial fusion in dopaminergic neurons derived from PD patients” value in test [1] is “reversed”.

Source of the values: patent US20240228487A1, “FUSED HETEROCYCLIC COMPOUND AND APPLICATION THEREOF, PHARMACEUTICAL COMPOSITIONS CONTAINING SAME AND APPLICATION THEREOF” (ZHEJIANG UNIVERSITY, priority 2021, published 2024).
